ChEMBL document CHEMBL1671854, “ramR mutations involved in efflux-mediated multidrug resistance in Salmonella enterica serovar Typhimurium” (2008)
≈ marks a conversion by molar mass, not a printed value.

Assays:
Type in all cases: functional, Salmonella enterica subsp. enterica serovar Typhimurium
Salmonella typhimurium [1] = experiment: Antimicrobial activity against multidrug-resistant Salmonella enterica serovar Typhimurium BN9945 by agar doubling dilution method
Salmonella typhimurium [2] = experiment: Antimicrobial activity against multidrug-resistant Salmonella enterica serovar Typhimurium 543SA98 harboring GyrA […] mutant gene by agar doubling dilution method
Salmonella typhimurium [3] = experiment: Antimicrobial activity against multidrug-resistant Salmonella enterica serovar Typhimurium 902SA92 harboring plasmid encoded RamR gene, GyrA S83A and D87N, GyrB S464F and ParC S80I mutant genes by agar doubling dilution method
Salmonella typhimurium [4] = experiment: Antimicrobial activity against Salmonella enterica serovar Typhimurium BN18/21 by agar doubling dilution method
Salmonella typhimurium [5] = experiment: Antimicrobial activity against soxR::kan-deficient Salmonella enterica serovar Typhimurium S/921495 by agar doubling dilution method
Salmonella typhimurium [6] = experiment: Antimicrobial activity against Salmonella enterica serovar Typhimurium BN18/21 harboring plasmid encoded RamR gene by agar doubling dilution method
Salmonella typhimurium [7] = experiment: Antimicrobial activity against soxS::kan-deficient Salmonella enterica serovar Typhimurium S/921495 by agar doubling dilution method
Salmonella typhimurium [8] = experiment: Antimicrobial activity against ramA::kan-deficient Salmonella enterica serovar Typhimurium BN18/21 by agar doubling dilution method
Salmonella typhimurium [9] = experiment: Antimicrobial activity against Salmonella enterica serovar Typhimurium BN18/71 harboring GyrA G81C, acrR mutant genes by agar doubling dilution method
Salmonella typhimurium [10] = experiment: Antimicrobial activity against ramR-deficient Salmonella enterica serovar Typhimurium S/921495 by agar doubling dilution method
Salmonella typhimurium [11] = experiment: Antimicrobial activity against ramA::kan-deficient Salmonella enterica serovar Typhimurium 102SA00 harboring GyrA S83A and D87N, GyrB S464F and ParC S80I mutant genes by agar doubling dilution method
Salmonella typhimurium [12] = experiment: Antimicrobial activity against Salmonella enterica serovar Typhimurium S/921495 harboring plasmid encoded RamR gene by agar doubling dilution method
Salmonella typhimurium [13] = experiment: Antimicrobial activity against multidrug-resistant Salmonella enterica serovar Typhimurium 102SA00 harboring plasmid encoded RamR gene, GyrA S83A and D87N, GyrB S464F and ParC S80I mutant genes by agar doubling dilution method
Salmonella typhimurium [14] = experiment: Antimicrobial activity against multidrug-resistant Salmonella enterica serovar Typhimurium 902SA92 harboring GyrA S83A and D87N, GyrB S464F and ParC S80I mutant genes by agar doubling dilution method
Salmonella typhimurium [15] = experiment: Antimicrobial activity against ramR-deficient Salmonella enterica serovar Typhimurium S/921495 harboring plasmid encoded RamR gene by agar doubling dilution method
Salmonella typhimurium [16] = experiment: Antimicrobial activity against Salmonella enterica serovar Typhimurium BN18/41 harboring GyrA G81C,acrR mutant genes by agar doubling dilution method
Salmonella typhimurium [17] = experiment: Antimicrobial activity against multidrug-resistant Salmonella enterica serovar Typhimurium BN10055 harboring GyrA S83Y mutant gene by agar doubling dilution method
Salmonella typhimurium [18] = experiment: Antimicrobial activity against ramA::kan-deficient Salmonella enterica serovar Typhimurium BN9181 by agar doubling dilution method
Salmonella typhimurium [19] = experiment: Antimicrobial activity against ramA::kan-deficient Salmonella enterica serovar Typhimurium 543SA98 harboring GyrA S83Y mutant gene by agar doubling dilution method
Salmonella typhimurium [20] = experiment: Antimicrobial activity against Salmonella enterica serovar Typhimurium S/921495 by agar doubling dilution method
Salmonella typhimurium [21] = experiment: Antimicrobial activity against multidrug-resistant Salmonella enterica serovar Typhimurium 102SA00 harboring GyrA S83A and D87N, GyrB S464F and ParC S80I mutant genes by agar doubling dilution method
Salmonella typhimurium [22] = experiment: Antimicrobial activity against Salmonella enterica serovar Typhimurium BN18 harboring plasmid encoded RamR gene by agar doubling dilution method
Salmonella typhimurium [23] = experiment: Antimicrobial activity against multidrug-resistant Salmonella enterica serovar Typhimurium BN10055 harboring plasmid encoded RamR gene, GyrA S83Y mutant gene by agar doubling dilution method
Salmonella typhimurium [24] = experiment: Antimicrobial activity against ramA::kan-deficient Salmonella enterica serovar Typhimurium S/921495 by agar doubling dilution method
Salmonella typhimurium [25] = experiment: Antimicrobial activity against multidrug-resistant Salmonella enterica serovar Typhimurium BN9945 harboring plasmid encoded RamR gene by agar doubling dilution method
Salmonella typhimurium [26] = experiment: Antimicrobial activity against ramA::kan-deficient Salmonella enterica serovar Typhimurium BN10055 harboring GyrA S83Y mutant gene by agar doubling dilution method
Salmonella typhimurium [27] = experiment: Antimicrobial activity against multidrug-resistant Salmonella enterica serovar Typhimurium 543SA98 harboring plasmid encoded RamR gene, GyrA S83Y mutant gene by agar doubling dilution method
Salmonella typhimurium [28] = experiment: Antimicrobial activity against ramA::kan-deficient Salmonella enterica serovar Typhimurium BN9945 by agar doubling dilution method
Salmonella typhimurium [29] = experiment: Antimicrobial activity against ramA::kan-deficient Salmonella enterica serovar Typhimurium 902SA92 harboring GyrA S83A and D87N, GyrB S464F and ParC S80I mutant genes by agar doubling dilution method
Salmonella typhimurium [30] = experiment: Antimicrobial activity against multidrug-resistant Salmonella enterica serovar Typhimurium BN9181 by agar doubling dilution method
Salmonella typhimurium [31] = experiment: Antimicrobial activity against Salmonella enterica serovar Typhimurium BN18 by agar doubling dilution method
Salmonella typhimurium [32] = experiment: Antimicrobial activity against marR-deficient Salmonella enterica serovar Typhimurium S/921495 by agar doubling dilution method
Salmonella typhimurium [33] = experiment: Antimicrobial activity against marR::kan-deficient Salmonella enterica serovar Typhimurium S/921495 by agar doubling dilution method
Salmonella typhimurium [34] = experiment: Antimicrobial activity against ramR::kan-deficient Salmonella enterica serovar Typhimurium S/921495 by agar doubling dilution method
Salmonella typhimurium [35] = experiment: Antimicrobial activity against Salmonella enterica serovar Typhimurium BN18/41 harboring plasmid encoded RamR gene, GyrA G81C,acrR mutant genes by agar doubling dilution method
Salmonella typhimurium [36] = experiment: Antimicrobial activity against marA::kan-deficient Salmonella enterica serovar Typhimurium S/921495 by agar doubling dilution method
Salmonella typhimurium [37] = experiment: Antimicrobial activity against multidrug-resistant Salmonella enterica serovar Typhimurium BN9181 harboring plasmid encoded RamR gene by agar doubling dilution method
Salmonella typhimurium [38] = experiment: Antimicrobial activity against ramA::kan-deficient Salmonella enterica serovar Typhimurium BN18/71 harboring plasmid encoded RamR gene, GyrA G81C,acrR mutant genes by agar doubling dilution method
Salmonella typhimurium [39] = experiment: Antimicrobial activity against ramA::kan-deficient Salmonella enterica serovar Typhimurium BN18/41 harboring plasmid encoded RamR gene, GyrA G81C,acrR mutant genes by agar doubling dilution method
Salmonella typhimurium [40] = experiment: Antimicrobial activity against Salmonella enterica serovar Typhimurium BN18/71 harboring plasmid encoded RamR gene, GyrA G81C,acrR mutant genes by agar doubling dilution method
Salmonella typhimurium [41] = experiment: Antimicrobial activity against ramA::kan-deficient Salmonella enterica serovar Typhimurium BN18 by agar doubling dilution method

## O=C(N[C@H](CO)[C@H](O)c1ccc([N+](=O)[O-])cc1)C(Cl)Cl [CHLORAMPHENICOL]
Salmonella typhimurium [1]
  MIC: 512 µg/mL (≈ 1580 µM)
Salmonella typhimurium [2]
  MIC: 512 µg/mL (≈ 1580 µM)
Salmonella typhimurium [3]
  MIC: 256 µg/mL (≈ 792 µM)
Salmonella typhimurium [4]
  MIC: 16 µg/mL (≈ 49.5 µM)
Salmonella typhimurium [5]
  MIC: 4 µg/mL (≈ 12.4 µM)
Salmonella typhimurium [6]
  MIC: 4 µg/mL (≈ 12.4 µM)
Salmonella typhimurium [7]
  MIC: 4 µg/mL (≈ 12.4 µM)
Salmonella typhimurium [8]
  MIC: 4 µg/mL (≈ 12.4 µM)
Salmonella typhimurium [9]
  MIC: 64 µg/mL (≈ 198 µM)
Salmonella typhimurium [10]
  MIC: 16 µg/mL (≈ 49.5 µM)
Salmonella typhimurium [11]
  MIC: 256 µg/mL (≈ 792 µM)
Salmonella typhimurium [12]
  MIC: 4 µg/mL (≈ 12.4 µM)
Salmonella typhimurium [13]
  MIC: 256 µg/mL (≈ 792 µM)
Salmonella typhimurium [14]
  MIC: 1020 µg/mL (≈ 3170 µM)
Salmonella typhimurium [15]
  MIC: 4 µg/mL (≈ 12.4 µM)
Salmonella typhimurium [16]
  MIC: 32 µg/mL (≈ 99 µM)
Salmonella typhimurium [17]
  MIC: 1020 µg/mL (≈ 3170 µM)
Salmonella typhimurium [18]
  MIC: 128 µg/mL (≈ 396 µM)
Salmonella typhimurium [19]
  MIC: 128 µg/mL (≈ 396 µM)
Salmonella typhimurium [20]
  MIC: 4 µg/mL (≈ 12.4 µM)
Salmonella typhimurium [21]
  MIC: 512 µg/mL (≈ 1580 µM)
Salmonella typhimurium [22]
  MIC: 4 µg/mL (≈ 12.4 µM)
Salmonella typhimurium [23]
  MIC: 1020 µg/mL (≈ 3170 µM)
Salmonella typhimurium [24]
  MIC: 4 µg/mL (≈ 12.4 µM)
Salmonella typhimurium [25]
  MIC: 128 µg/mL (≈ 396 µM)
Salmonella typhimurium [26]
  MIC: 128 µg/mL (≈ 396 µM)
Salmonella typhimurium [27]
  MIC: 128 µg/mL (≈ 396 µM)
Salmonella typhimurium [28]
  MIC: 128 µg/mL (≈ 396 µM)
Salmonella typhimurium [29]
  MIC: 256 µg/mL (≈ 792 µM)
Salmonella typhimurium [30]
  MIC: 128 µg/mL (≈ 396 µM)
Salmonella typhimurium [31]
  MIC: 4 µg/mL (≈ 12.4 µM)
Salmonella typhimurium [32]
  MIC: 4 µg/mL (≈ 12.4 µM)
Salmonella typhimurium [33]
  MIC: 4 µg/mL (≈ 12.4 µM)
Salmonella typhimurium [34]
  MIC: 16 µg/mL (≈ 49.5 µM)
Salmonella typhimurium [35]
  MIC: 16 µg/mL (≈ 49.5 µM)
Salmonella typhimurium [36]
  MIC: 4 µg/mL (≈ 12.4 µM)
Salmonella typhimurium [37]
  MIC: 128 µg/mL (≈ 396 µM)
Salmonella typhimurium [38]
  MIC: 16 µg/mL (≈ 49.5 µM)
Salmonella typhimurium [39]
  MIC: 16 µg/mL (≈ 49.5 µM)
Salmonella typhimurium [40]
  MIC: 16 µg/mL (≈ 49.5 µM)
Salmonella typhimurium [41]
  MIC: 4 µg/mL (≈ 12.4 µM)
